Data on 36 compounds can be found in patent publication US10961238B2, “Modulators of hedgehog (Hh) signaling pathway” (E-THERAPEUTICS PLC, priority 2016, dated 2021).

The assay has as its system C3H10T1/2 cells. Kind of assay: C3H assay: differentiation of C3H10T1/2 cells by mSHH, measurement of alkaline phosphatase. Type of assay: cell-based, mouse. The settings on record: Mus musculus, C3H 10T1/2; C3H10T1/2 cells stimulated with mSHH for 72 hours; alkaline phosphatase activity; read-out: IC50 Ranges.

Take `O=S(=O)(C1CN(c2ncccc2CO)C1)N1CCC(c2ccncc2)CC1` [Compound 259, [2-[3-(4-pyridin-4-ylpiperidin-1-yl)sulfonylaze-tidin-1-yl]pyridin-3-yl]methanol]: the IC50 was 1000 to 10000 nM.

Regarding `CCOC(=O)c1coc(N2CC(S(=O)(=O)N3CCC(c4ccncc4)CC3)C2)n1` [Compound 260, ethyl 2-[3-(4-pyridin-4-ylpiperidin-1-yl)sulfonylaze-tidin-1-yl]-1,3-oxazole-4-carboxylate], the IC50 lay within 1000 to 10000 nM.

As to `NC(=O)c1coc(N2CC(S(=O)(=O)N3CCC(c4ccncc4)CC3)C2)n1` [Compound 261, 2-[3-[[4-(4-pyridyl)-1-piperidyl]sulfonyl]azetidin-1-yl]oxazole-4-carboxamide], the IC50 was 1000 to 10000 nM.

For `Cc1noc(C)c1NC(=O)N1CC(S(=O)(=O)N2CCC(c3ccncc3)CC2)C1` [Compound 262, N-(3,5-dimethyl-1,2-oxazol-4-yl)-3-(4-pyridin-4-ylpiperidin-1-yl)sulfonylaze-tidine-1-carboxamide], the IC50 was 100 to 1000 nM.

As to `CC[C@@H](C)OC(=O)N1CC(S(=O)(=O)N2CCC(c3ccncc3)CC2)C1` [Compound 263, [(2R)-butan-2-yl]3-(4-pyridin-4-ylpiperidin-1-yl)sulfonylaze-tidine-1-carboxylate], the IC50 lay in the range of 100 to 1000 nM.

Regarding `O=C(OC1CCCCC1)N1CC(S(=O)(=O)N2CCC(c3ccncc3)CC2)C1` [Compound 264, cyclohexyl 3-(4-pyridin-4-ylpiperidin-1-yl)sulfonylaze-tidine-1-carboxylate], the IC50 fell in the range of 100 to 1000 nM.

On to `O=C(NC1(C(F)(F)F)CC1)N1CC(S(=O)(=O)N2CCC(c3ccncc3)CC2)C1` [Compound 265, 3-(4-pyridin-4-ylpiperidin-1-yl)sulfonyl-N-[1-(trifluoromethyl)-cyclopropyl] azetidine-1-carboxamide], for which the IC50 was 100 to 1000 nM.

Take `O=C(OCC1CCCCC1)N1CC(S(=O)(=O)N2CCC(c3ccncc3)CC2)C1` [Compound 266, cyclohexylmethyl 3-(4-pyridin-4-ylpiperidin-1-yl)sulfonylaze-tidine-1-carboxylate]: the IC50 fell in the range of 100 to 1000 nM.

Take `Cc1ccc(-n2cc(C3CCN(S(=O)(=O)C4CNC4)CC3)c3cccnc32)nc1` [Compound 267, 3-[1-(azetidin-3-ylsulfonyl)piper-idin-4-yl]-1-(5-methylpyridin-2-yl)pyrrolo [2,3-b]pyridine]: the IC50 was 1000 to 10000 nM.

Turning to `O=S(=O)(C1CN(c2ccccn2)C1)N1CCC(c2ccncc2)CC1` [Compound 268, 2-[3-(4-pyridin-4-ylpiperidin-1-yl)sulfonylaze-tidin-1-yl]pyridine], the IC50 lay within 1000 to 10000 nM.

For `O=S(=O)(C1CN(c2cccnc2)C1)N1CCC(c2c[nH]c3ncccc23)CC1` [Compound 270, 3-[1-(1-pyridin-3-ylazetidin-3-yl)-sulfonylpiper-idin-4-yl]-1H-pyrrolo[2,3-b]pyridine], the IC50 was in the range of 100 to 1000 nM.

As for `CN(C(=O)N1CCC(S(=O)(=O)N2CCC(c3c[nH]c4ncccc34)CC2)C1)C(C)(C)C` (stereo not drawn) [Compound 272, N-tert-butyl-N-methyl-3-[4-(1H-pyrrolo[2,3-b]pyridin-3-yl)piperidin-1-yl]sulfonylpyrr olidine-1-carboxamide], the IC50 is 10 to 100 nM.

As for `COC(=O)[C@H]1C[C@@H](S(=O)(=O)N2CCC(c3c[nH]c4ncccc34)CC2)C1` [Compound 273], the IC50 is 100 to 1000 nM.

In the case of `COc1cccc(NC(=O)N2CC(S(=O)(=O)N3CCC(c4c[nH]c5ncccc45)CC3)C2)c1` [Compound 275, N-(3-methoxyphenyl)-3-[4-(1H-pyrrolo[2,3-b]pyridin-3-yl)piperidin-1-yl]sulfonylaze-tidine-1-carboxamide], the concentration for half-maximal inhibition (IC50) fell in the range of 100 to 1000 nM.

For the compound `Cc1ccc(NC(=O)N2CC(S(=O)(=O)N3CCC(c4c[nH]c5ncccc45)CC3)C2)cc1` [Compound 276, N-(4-methylphenyl)-3-[4-(1H-pyrrolo[2,3-b]pyridin-3-yl)piperidin-1-yl]sulfonylaze-tidine-1-carboxamide], the IC50 fell in the range of 100 to 1000 nM.

Regarding `Cc1ccc(F)cc1NC(=O)N1CC(S(=O)(=O)N2CCC(c3c[nH]c4ncccc34)CC2)C1` [Compound 277, N-(5-fluoro-2-methylphenyl)-3-[4-(1H-pyrrolo[2,3-b]pyridin-3-yl)piperidin-1-yl]sulfonylaze-tidine-1-carboxamide], the IC50 was 10 to 100 nM.

With `CN(C(=O)C1CC(S(=O)(=O)N2CCC(c3c[nH]c4ncccc34)CC2)C1)C(C)(C)C` (stereo not drawn) [Compound 278, N-tert-butyl-N-methyl-3-[4-(1H-pyrrolo [2,3-b]pyridin-3-yl)piperidin-1-yl]sulfonylcycl obutane-1-carboxamide], the IC50 was in the range of 10 to 100 nM.

For the compound `COc1cccc(N(C)C(=O)N2CC(S(=O)(=O)N3CCC(c4c[nH]c5ncccc45)CC3)C2)c1` [Compound 279, N-(3-methoxyphenyl)-N-methyl-3-[4-(1H-pyrrolo [2,3-b]pyridin-3-yl)piperidin-1-yl]sulfonylaze-tidine-1-carboxamide], the 50% inhibitory concentration (IC50) was 1000 to 10000 nM.

With `O=C(Oc1ccc(F)cc1)N1CC(S(=O)(=O)N2CCC(c3ccncc3)CC2)C1` [Compound 280, (4-fluorophenyl) 3-(4-pyridin-4-ylpiperidin-1-yl) sulfonylaze-tidine-1-carboxylate], the IC50 is 1000 to 10000 nM.

Take `COc1cccc(NC(=O)N2CC(S(=O)(=O)N3CCC(c4ccncc4)CC3)C2)c1` [Compound 281, N-(3-methoxyphenyl)-3-(4-pyridin-4-ylpiperidin-1-yl)sulfonylaze-tidine-1-carboxamide]: the IC50 lay within 1000 to 10000 nM.

`Cc1ccc(NC(=O)N2CC(S(=O)(=O)N3CCC(c4ccncc4)CC3)C2)cc1` [Compound 282, N-(4-methylphenyl)-3-(4-pyridin-4-ylpiperidin-1-yl)sulfonylaze-tidine-1-carboxamide]: the IC50 lay within 1000 to 10000 nM.

Turning to `CC(C)(C)OC(=O)N1CC(S(=O)(=O)N2CCC(c3nc4ccccc4s3)CC2)C1` [Compound 283, tert-butyl 3-[4-(1,3-benzothiazol-2-yl)piperidin-1-yl]sulfonylaze-tidine-1-carboxylate], the IC50 is 100 to 1000 nM.

Consider `Cc1ccc(F)cc1NC(=O)N1CC(S(=O)(=O)N2CCC(c3ccncc3)CC2)C1` [Compound 286, N-(5-fluoro-2-methylphenyl)-3-(4-pyridin-4-ylpiperidin-1-yl)sulfonylaze-tidine-1-carboxamide], for which the half-inhibitory concentration (IC50) lay within 1000 to 10000 nM.

On to `O=S(=O)(C1CCC1)N1CCC(c2c[nH]c3ncccc23)CC1` [Compound 287, 3-(1-cyclobutylsulfonylpiperidin-4-yl)-1H-pyrrolo[2,3-b]pyridine], for which the IC50 lay within 1000 to 10000 nM.

For the compound `CN(C(=O)[C@H]1C[C@@H](S(=O)(=O)N2CCC(c3c[nH]c4ncccc34)CC2)C1)C(C)(C)C` [Compound 289, cis-N-tert-butyl-N-methyl-3-[[4-(1H-pyrrolo[2,3-b]pyridin-3-yl)-1-piperidyl]sulfonyl]cyclobutanecarboxamide], the 50% inhibitory concentration (IC50) was 10 to 100 nM.

As for `CN(C(=O)[C@H]1C[C@H](S(=O)(=O)N2CCC(c3c[nH]c4ncccc34)CC2)C1)C(C)(C)C` [Compound 290, trans-N-tert-butyl-N-methyl-3-[[4-(1H-pyrrolo[2,3-b]pyridin-3-yl)-1-piperidyl]sulfonyl]cyclobutanecarboxamide], the IC50 is 100 to 1000 nM.

With `O=C(NCCS(=O)(=O)N1CCC(c2ccncc2)CC1)OC1CCCCC1` [Compound 291, cyclohexyl N-[2-(4-pyridin-4-ylpiperidin-1-yl)sulfonylethyl] carbamate], the IC50 is 1000 to 10000 nM.

For `O=C(NC1(C(F)(F)F)CC1)N1CC(S(=O)(=O)N2CCC(c3nc4ccccc4s3)CC2)C1` [Compound 293, 3-[4-(1,3-benzothiazol-2-yl)piperidin-1-yl]sulfonyl-N-[1-(trifluoromethyl)cyclopropyl] azetidine-1-carboxamide], the IC50 was 10 to 100 nM.

With `Cc1noc(C)c1NC(=O)[C@H]1C[C@@H](S(=O)(=O)N2CCC(c3ccncc3)CC2)C1` [Compound 295, cis-N-(3,5-dimethyl-1,2-oxazol-4-yl)-3-(4-pyridin-4-ylpiperidin-1-yl) sulfonylcyclobutane-1-carboxamide], the IC50 lay in the range of 1000 to 10000 nM.

Turning to `O=C(NC1(C(F)(F)F)CC1)[C@H]1C[C@@H](S(=O)(=O)N2CCC(c3c[nH]c4ncccc34)CC2)C1` [Compound 297, cis-3-[4-(1H-pyrrolo[2,3-b]pyridin-3-yl)piperidin-1-yl]sulfonyl-N-[1-(trifluoromethyl)cyclopropyl] cyclobutane-1-carboxamide], the IC50 lay within 10 to 100 nM.

Take `CC(C)(C)OC(=O)N1CC(S(=O)(=O)N2CCC(c3nc4ccccc4[nH]3)CC2)C1` [Compound 299, tert-butyl 3-[4-(1H-benzimidazol-2-yl)piperidin-1-yl]sulfonylaze-tidine-1-carboxylate]: the IC50 fell in the range of 1000 to 10000 nM.

As to `O=C(NC1(C(F)(F)F)CC1)N1CC(S(=O)(=O)N2CCC(c3nc4ccccc4[nH]3)CC2)C1` [Compound 300, 3-[4-(1H-benzimidazol-2-yl)piperidin-1-yl]sulfonyl-N-[1-(trifluoromethyl)cyclopropyl] azetidine-1-carboxamide], the IC50 is 1000 to 10000 nM.

On to `CC(C)(C)OC(=O)N1CC(S(=O)(=O)N2CCC(c3ccccc3)CC2)C1` [Compound 301, tert-butyl 3-(4-phenylpiperidin-1-yl)sulfonylaze-tidine-1-carboxylate], for which the IC50 was in the range of 100 to 1000 nM.

As for `Cc1cc(Cl)ccc1C1CCN(S(=O)(=O)C2CN(C(=O)OC(C)(C)C)C2)CC1` [Compound 302, tert-butyl 3-[4-(4-chloro-2-methylphenyl)piperidin-1-yl]sulfonylaze-tidine-1-carboxylate], the IC50 was 100 to 1000 nM.

On to `CC(C)(C)OC(=O)N1CC(S(=O)(=O)N2CCC(c3ccc(C#N)cc3)CC2)C1` [Compound 303, tert-butyl 3-[4-(4-cyanophenyl)piperidin-1-yl]sulfonylaze-tidine-1-carboxylate], for which the IC50 fell in the range of 100 to 1000 nM.

Regarding `CC(C)(C)OC(=O)N1CC(S(=O)(=O)N2CCC(c3ccc(Cl)cc3)CC2)C1` [Compound 304, tert-butyl 3-[4-(4-chlorophenyl)piperidin-1-yl]sulfonylaze-tidine-1-carboxylate], the IC50 was 100 to 1000 nM.

A word on the IC50: it is the concentration needed to halve the response being measured.
